PubChem BioAssay (NCI)
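Exposure lasted 48 hours, with cells grown in 96-well plates and compounds tested at five concentrations. The concentration for 50% growth inhibition is given as GI50. TGI: total growth inhibition.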

How the values were obtained:
Experiment in all cases: DTP human tumour cell line panel, 48 h
786-0 renal = system: 786-0 renal
A498 renal = system: A498 renal
A549 NSCLC = system: A549 NSCLC
ACHN renal = system: ACHN renal
BT-549 breast = system: BT-549 breast
CAKI-1 renal = system: CAKI-1 renal
CCRF-CEM leukemia = system: CCRF-CEM leukemia
COLO 205 colon = system: COLO 205 colon
DU-145 prostate = system: DU-145 prostate
EKVX NSCLC = system: EKVX NSCLC
HCC-2998 colon = system: HCC-2998 colon
HCT-116 colon = system: HCT-116 colon
HCT-15 colon = system: HCT-15 colon
HL-60(TB) leukemia = system: HL-60(TB) leukemia
HOP-62 NSCLC = system: HOP-62 NSCLC
HOP-92 NSCLC = system: HOP-92 NSCLC
HS 578T breast = system: HS 578T breast
HT29 colon = system: HT29 colon
IGROV1 ovarian = system: IGROV1 ovarian
K-562 leukemia = system: K-562 leukemia
KM12 colon = system: KM12 colon
LOX IMVI melanoma = system: LOX IMVI melanoma
M14 melanoma = system: M14 melanoma
MALME-3M melanoma = system: MALME-3M melanoma
MCF7 breast = system: MCF7 breast
MDA-MB-231 breast = system: MDA-MB-231 breast
MDA-MB-435 = system: MDA-MB-435
MOLT-4 leukemia = system: MOLT-4 leukemia
NCI-H226 lung = system: NCI-H226 lung
NCI-H23 lung = system: NCI-H23 lung
NCI-H460 lung = system: NCI-H460 lung
NCI-H522 lung = system: NCI-H522 lung
NCI/ADR-RES ovarian = system: NCI/ADR-RES ovarian
OVCAR-3 ovarian = system: OVCAR-3 ovarian
OVCAR-4 ovarian = system: OVCAR-4 ovarian
OVCAR-5 ovarian = system: OVCAR-5 ovarian
OVCAR-8 ovarian = system: OVCAR-8 ovarian
PC-3 prostate = system: PC-3 prostate
RPMI-8226 leukemia = system: RPMI-8226 leukemia
RXF 393 renal = system: RXF 393 renal
SF-268 CNS = system: SF-268 CNS
SF-295 CNS = system: SF-295 CNS
SF-539 CNS = system: SF-539 CNS
SK-MEL-2 melanoma = system: SK-MEL-2 melanoma
SK-MEL-28 melanoma = system: SK-MEL-28 melanoma
SK-MEL-5 melanoma = system: SK-MEL-5 melanoma
SK-OV-3 ovarian = system: SK-OV-3 ovarian
SN12C renal = system: SN12C renal
SNB-19 CNS = system: SNB-19 CNS
SNB-75 CNS = system: SNB-75 CNS
SR leukemia = system: SR leukemia
SW-620 colon = system: SW-620 colon
T-47D breast = system: T-47D breast
TK-10 renal = system: TK-10 renal
U251 CNS = system: U251 CNS
UACC-257 melanoma = system: UACC-257 melanoma
UACC-62 melanoma = system: UACC-62 melanoma
UO-31 renal = system: UO-31 renal

CCN(Cc1cccc(Cl)c1)c1ccc(CO)c(Cl)c1
GI50 (786-0 renal): 5.96 µM
TGI (786-0 renal): 20.9 µM
GI50 (A498 renal): 0.029 µM
TGI (A498 renal): 0.166 µM
GI50 (A549 NSCLC): 2.47 µM
TGI (A549 NSCLC): 17 µM
GI50 (ACHN renal): 11.9 µM
TGI (ACHN renal): 25.1 µM
GI50 (BT-549 breast): 11.5 µM
TGI (BT-549 breast): 24.3 µM
GI50 (CAKI-1 renal): 0.724 µM
TGI (CAKI-1 renal): 10.1 µM
GI50 (CCRF-CEM leukemia): 11.9 µM
TGI (CCRF-CEM leukemia): 35.4 µM
GI50 (COLO 205 colon): 2.43 µM
TGI (COLO 205 colon): 7.53 µM
GI50 (DU-145 prostate): 11.6 µM
TGI (DU-145 prostate): 24.8 µM
GI50 (EKVX NSCLC): 12.4 µM
TGI (EKVX NSCLC): 27 µM
GI50 (HCC-2998 colon): 11.3 µM
TGI (HCC-2998 colon): 24.8 µM
GI50 (HCT-116 colon): 0.105 µM
TGI (HCT-116 colon): 10.3 µM
GI50 (HCT-15 colon): 9.93 µM
TGI (HCT-15 colon): 25.9 µM
GI50 (HL-60(TB) leukemia): 3.93 µM
TGI (HL-60(TB) leukemia): 20.9 µM
GI50 (HOP-62 NSCLC): 2.09 µM
TGI (HOP-62 NSCLC): 16.3 µM
GI50 (HOP-92 NSCLC): 1.29 µM
TGI (HOP-92 NSCLC): 10.7 µM
GI50 (HS 578T breast): 13.6 µM
TGI (HS 578T breast): 37.5 µM
GI50 (HT29 colon): 3.61 µM
TGI (HT29 colon): 14.6 µM
GI50 (IGROV1 ovarian): 0.111 µM
TGI (IGROV1 ovarian): 1.62 µM
GI50 (K-562 leukemia): 1.65 µM
TGI (K-562 leukemia): > 50 µM
GI50 (KM12 colon): 12.9 µM
TGI (KM12 colon): 26.8 µM
GI50 (LOX IMVI melanoma): 9.11 µM
TGI (LOX IMVI melanoma): 22.3 µM
GI50 (M14 melanoma): 12.6 µM
TGI (M14 melanoma): 28.6 µM
GI50 (MALME-3M melanoma): 15.8 µM
TGI (MALME-3M melanoma): 32.8 µM
GI50 (MCF7 breast): 0.329 µM
TGI (MCF7 breast): 11.4 µM
GI50 (MDA-MB-231 breast): 12.9 µM
TGI (MDA-MB-231 breast): 30.2 µM
GI50 (MDA-MB-435): 13.5 µM
TGI (MDA-MB-435): 27.5 µM
GI50 (MOLT-4 leukemia): 12.1 µM
TGI (MOLT-4 leukemia): 34.7 µM
GI50 (NCI-H226 lung): 0.0905 µM
TGI (NCI-H226 lung): 0.236 µM
GI50 (NCI-H23 lung): 7.51 µM
TGI (NCI-H23 lung): 23.7 µM
GI50 (NCI-H460 lung): 0.35 µM
TGI (NCI-H460 lung): 12.3 µM
GI50 (NCI-H522 lung): 12.8 µM
TGI (NCI-H522 lung): 27.1 µM
GI50 (NCI/ADR-RES ovarian): 10.8 µM
TGI (NCI/ADR-RES ovarian): 23.8 µM
GI50 (OVCAR-3 ovarian): 0.835 µM
TGI (OVCAR-3 ovarian): 5.29 µM
GI50 (OVCAR-4 ovarian): 0.505 µM
TGI (OVCAR-4 ovarian): 9.87 µM
GI50 (OVCAR-5 ovarian): 0.222 µM
TGI (OVCAR-5 ovarian): 1.25 µM
GI50 (OVCAR-8 ovarian): 10.5 µM
TGI (OVCAR-8 ovarian): 23.3 µM
GI50 (PC-3 prostate): 9.8 µM
TGI (PC-3 prostate): 23.2 µM
GI50 (RPMI-8226 leukemia): 4.35 µM
TGI (RPMI-8226 leukemia): 28.1 µM
GI50 (RXF 393 renal): 4.67 µM
TGI (RXF 393 renal): 19.8 µM
GI50 (SF-268 CNS): 13.8 µM
TGI (SF-268 CNS): 28 µM
GI50 (SF-295 CNS): 1.12 µM
TGI (SF-295 CNS): 13.8 µM
GI50 (SF-539 CNS): 15.9 µM
TGI (SF-539 CNS): 30.8 µM
GI50 (SK-MEL-2 melanoma): 3.86 µM
TGI (SK-MEL-2 melanoma): 20.8 µM
GI50 (SK-MEL-28 melanoma): 14.5 µM
TGI (SK-MEL-28 melanoma): 28.7 µM
GI50 (SK-MEL-5 melanoma): 5.73 µM
TGI (SK-MEL-5 melanoma): 19.9 µM
GI50 (SK-OV-3 ovarian): 5.62 µM
TGI (SK-OV-3 ovarian): 18.2 µM
GI50 (SN12C renal): 11.9 µM
TGI (SN12C renal): 27.3 µM
GI50 (SNB-19 CNS): 13.8 µM
TGI (SNB-19 CNS): 28.6 µM
GI50 (SNB-75 CNS): 12 µM
TGI (SNB-75 CNS): 30.2 µM
GI50 (SR leukemia): 16.9 µM
TGI (SR leukemia): 39.9 µM
GI50 (SW-620 colon): 1.56 µM
TGI (SW-620 colon): 18.1 µM
GI50 (T-47D breast): 0.205 µM
TGI (T-47D breast): 1.14 µM
GI50 (TK-10 renal): 0.0588 µM
TGI (TK-10 renal): 0.321 µM
GI50 (U251 CNS): 1.09 µM
TGI (U251 CNS): 14.6 µM
GI50 (UACC-257 melanoma): 0.134 µM
TGI (UACC-257 melanoma): 0.404 µM
GI50 (UACC-62 melanoma): 0.116 µM
TGI (UACC-62 melanoma): 1.07 µM
GI50 (UO-31 renal): 3.55 µM
TGI (UO-31 renal): 17.6 µM
